From US9085576B2 (AMGEN INC., priority 2013, dated 2015)

What was measured:
BACE = BACE (Homo sapiens (Human), UniProt P56817); experiment: In vitro BACE cell-based assay (Aβ40 in conditioned medium, sandwich ELISA)
[1] = target: Beta Secretase enzyme (BACE) (Homo sapiens (Human), UniProt P56817); experiment: In vitro enzymatic BACE FRET assay; format: biochemical; details: read-out: BACE1 Enzyme assay IC50
Cathepsin D (Cat D) = Cathepsin D (Cat D) (Homo sapiens (Human), UniProt P07339); experiment: In vitro enzymatic Cathepsin D (Cat D) FRET assay; format: biochemical; details: read-out: CatD IC50
Cathepsin D (Cat D), sequence (P07339 65-412, species assumed): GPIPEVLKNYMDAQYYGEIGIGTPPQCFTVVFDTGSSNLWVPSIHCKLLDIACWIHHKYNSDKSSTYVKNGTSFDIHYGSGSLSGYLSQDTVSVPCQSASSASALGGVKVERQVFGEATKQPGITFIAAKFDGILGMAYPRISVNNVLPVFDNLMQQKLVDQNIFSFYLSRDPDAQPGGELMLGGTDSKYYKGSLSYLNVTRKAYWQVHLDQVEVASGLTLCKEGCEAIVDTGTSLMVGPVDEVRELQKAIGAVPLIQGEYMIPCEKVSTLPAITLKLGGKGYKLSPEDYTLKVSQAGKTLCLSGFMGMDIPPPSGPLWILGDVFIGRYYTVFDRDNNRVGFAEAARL

BACE, sequence (P56817 46-501, species assumed): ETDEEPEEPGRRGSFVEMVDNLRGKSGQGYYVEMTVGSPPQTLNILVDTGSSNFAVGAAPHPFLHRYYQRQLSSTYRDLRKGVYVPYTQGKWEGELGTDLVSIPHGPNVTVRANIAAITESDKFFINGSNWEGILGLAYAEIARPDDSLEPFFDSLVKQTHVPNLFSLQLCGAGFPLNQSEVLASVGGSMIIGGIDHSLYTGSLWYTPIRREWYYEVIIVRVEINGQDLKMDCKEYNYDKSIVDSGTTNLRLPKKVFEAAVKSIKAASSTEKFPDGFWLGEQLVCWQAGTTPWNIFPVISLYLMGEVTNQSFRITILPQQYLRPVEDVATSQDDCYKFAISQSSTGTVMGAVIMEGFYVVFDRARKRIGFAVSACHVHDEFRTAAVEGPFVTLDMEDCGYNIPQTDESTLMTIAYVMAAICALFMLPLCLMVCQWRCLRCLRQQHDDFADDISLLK
Beta Secretase enzyme (BACE), sequence (P56817 46-501): as the sequence (P56817 46-501, species assumed) above

Row | Compound | IC50 (BACE) | IC50 [1] | IC50 (Cathepsin D (Cat D))
1 | COc1cnc(C(=O)Nc2cccc([C@@]3(C(F)F)N=C(N)O[C@@H]4C[C@@H]43)c2)cn1 [Example 438, N-(3-((1R,5S,6R)-3-amino-5-(difluoromethyl)-2-oxa-4-azabicyclo[4.1.0]hept-3-en-5-yl)phenyl)-5-methoxypyrazine-2-carboxamide] | 0.126 µM | 0.5 µM | 793 µM
2 | CO[C@H](C)C(=O)Nc1ccc(F)c([C@@]2(C(F)F)N=C(N)O[C@@H]3C[C@@H]32)c1 (mixture of isomers) [Example 257, (R,S)-N-(3-((1R,5S,6R)-3-amino-5-(difluoromethyl)-2-oxa-4-azabicyclo[4.1.0]hept-3-en-5-yl)-4-fluorophenyl)-2-methoxypropanamide] | 2.54 µM | 1.84 µM | 377 µM
3 | Cc1ccc(NC(=O)c2ccc(Cl)cn2)cc1[C@@]1(C(F)F)N=C(N)O[C@@H]2C[C@@H]21 [Example 295, N-(3-((1R,5S,6R)-3-amino-5-(difluoromethyl)-2-oxa-4-azabicyclo[4.1.0]hept-3-en-5-yl)-4-methylphenyl)-5-chloropicolinamide] | 0.0129 µM | 0.0903 µM | 464 µM
4 | COc1cnc(C(=O)Nc2ccc(F)c([C@@]3(CF)N=C(N)O[C@@H]4C[C@@H]43)c2)cn1 [Example 194, N-(3-((1R,5S,6R)-3-amino-5-(fluoromethyl)-2-oxa-4-azabicyclo[4.1.0]hept-3-en-5-yl)-4-fluorophenyl)-5-methoxypyrazine-2-carboxamide] | 0.027 µM | 0.143 µM | 1230 µM
5 | NC1=N[C@@](c2cc(NC(=O)c3ncc(Cl)cc3Cl)ccc2Cl)(C(F)F)[C@H]2C[C@H]2O1 [Example 211, N-(3-((1R,5S,6R)-3-amino-5-(difluoromethyl)-2-oxa-4-azabicyclo[4.1.0]hept-3-en-5-yl)-4-chlorophenyl)-3,5-dichloropicolinamide] | 0.0147 µM | 0.0126 µM | > 400 µM
6 | C#CCOc1ccc(C(=O)Nc2ccc(F)c([C@@]3(C(F)F)N=C(N)O[C@@H]4C[C@@H]43)c2)nc1 [Example 232, N-(3-((1R,5S,6R)-3-amino-5-(difluoromethyl)-2-oxa-4-azabicyclo[4.1.0]hept-3-en-5-yl)-4-fluorophenyl)-5-(prop-2-yn-1-yloxy)picolinamide] | 0.0418 µM | 0.0164 µM | 588 µM
7 | NC1=N[C@@](c2cc(NC(=O)c3ccc(OCC(F)(F)F)cn3)ccc2F)(C(F)F)[C@H]2C[C@H]2O1 [Example 236, N-(3-((1R,5S,6R)-3-amino-5-(difluoromethyl)-2-oxa-4-azabicyclo[4.1.0]hept-3-en-5-yl)-4-fluorophenyl)-5-(2,2,2-trifluoroethoxy) picolinamide] | 0.296 µM | 0.104 µM | 4250 µM
8 | COC[C@H](C)NC(=O)c1ccc(F)c([C@]2(C(F)F)N=C(N)O[C@H]3C[C@H]32)c1 [Example 427, 3-((1S,5R,6S)-3-Amino-5-(difluoromethyl)-2-oxa-4-azabicyclo[4.1.0]hept-3-en-5-yl)-4-fluoro-N—((S)-1-methoxypropan-2-yl)benzamide] | > 15.6 µM | > 40 µM | > 400 µM
9 | Cc1cc(OCC(F)(F)F)cnc1C(=O)Nc1ccc(F)c([C@@]2(C(F)F)N=C(N)O[C@@H]3C[C@@H]32)c1 [Example 189, N-(3-((1R,5S,6R)-3-amino-5-(difluoromethyl)-2-oxa-4-azabicyclo[4.1.0]hept-3-en-5-yl)-4-fluorophenyl)-3-methyl-5-(2,2,2-trifluoroethoxy) picolinamide] | 0.386 µM | 0.12 µM | 770 µM
10 | Cc1cc(C#N)cnc1C(=O)Nc1cc(F)c(C)c([C@@]2(C(F)F)N=C(N)O[C@@H]3C[C@@H]32)c1 (racemic) [Example 309, N-(3-(((1R,S),(5S,R),(6R.S))-3-amino-5-(difluoromethyl)-2-oxa-4-azabicyclo[4.1.0]hept-3-en-5-yl)-5-fluoro-4-methylphenyl)-5-cyano-3-methylpicolinamide] | 0.0387 µM | 0.0743 µM | 421 µM
11 | NC1=N[C@](c2cc(NC(=O)c3ccc(Cl)cn3)ccc2F)(C(F)F)[C@@H]2C[C@@H]2O1 [Example 60, N-(3-((1S,5R,6S)-3-amino-5-(difluoromethyl)-2-oxa-4-azabicyclo[4.1.0]hept-3-en-5-yl)-4-fluorophenyl)-5-chloropicolinamide] | > 15.6 µM | > 40 µM | > 400 µM
12 | Cc1cc(C(F)F)cnc1C(=O)Nc1ccc(Cl)c([C@@]2(CF)N=C(N)O[C@@H]3C[C@@H]32)c1 [Example 122, N-(3-((1R,5S,6R)-3-amino-5-(fluoromethyl)-2-oxa-4-azabicyclo[4.1.0]hept-3-en-5-yl)-4-chlorophenyl)-5-(difluoromethyl)-3-methylpicolinamide] | 0.0148 µM | 0.099 µM | 1070 µM
13 | CC(F)(F)Oc1ccc(C(=O)Nc2ccc(F)c([C@@]3(C(F)F)N=C(N)O[C@@H]4C[C@@H]43)c2)nc1 [Example 191, N-(3-((1R,5S,6R)-3-amino-5-(difluoromethyl)-2-oxa-4-azabicyclo[4.1.0]hept-3-en-5-yl)-4-fluorophenyl)-5-(1,1-difluoroethoxy) picolinamide] | 0.536 µM | 0.415 µM | 1070 µM
14 | N#Cc1ccc(C(=O)Nc2cc(F)c(Cl)c([C@]3(CF)N=C(N)O[C@H]4C[C@H]43)c2)nc1 (racemic) [Example 136, N-(3-((1R/S,5S/R,6R/S)-3-amino-5-(fluoromethyl)-2-oxa-4-4-azabicyclo[4.1.0]hept-3-en-5-yl)-4-chloro-5-fluorophenyl)-5-cyanopicolinamide] | 0.0214 µM | 0.12 µM | 491 µM
15 | NC1=N[C@](CF)(c2cc(Nc3nccc4cc(Cl)cnc34)cc(F)c2F)[C@@H]2C[C@@H]2O1 [Example 341, (1S,5S,6S)-5-(5-((3-chloro-1,7-naphthyridin-8-yl)amino)-2,3-difluorophenyl)-5-(fluoromethyl)-2-oxa-4-azabicyclo[4.1.0]hept-3-en-3-amine] | 3.41 µM | 3.41 µM | 2890 µM
16 | COc1cnc(C(=O)Nc2ccc(F)c([C@@]3(C(F)F)N=C(N)O[C@@H]4C[C@@H]43)c2)c(OC)n1 [Example 84, N-(3-((1R,5S,6R)-3-amino-5-(difluoromethyl)-2-oxa-4-azabicyclo[4.1.0]hept-3-en-5-yl)-4-fluorophenyl)-3,5-dimethoxypyrazine-2-carboxamide] | 0.361 µM | 0.494 µM | > 400 µM
17 | Cc1cc(OC(F)F)cnc1C(=O)Nc1cc(F)c(Cl)c([C@]2(CF)N=C(N)O[C@H]3C[C@H]32)c1 (racemic) [Example 153, N-(3-([1(S,R),5(R,S),6(S, R)]-3-amino-5-(fluoromethyl)-2-oxa-4-azabicyclo[4.1.0]hept-3-en-5-yl)-4-chloro-5-fluorophenyl)-5-(difluoromethoxy)-3-methylpicolinamide compound with N-(3-((1S,5R,6S)-3-amino-5-(fluoromethyl)-2-oxa-4-azabicyclo[4.1.0]hept-3-en-5-yl)-4-chloro-5-fluorophenyl)-5-(difluoromethoxy)-3-methylpicolinamide (1:1)] | 0.0762 µM | 0.143 µM | 555 µM
18 | NC1=N[C@@](c2cc(N3Cc4cc(Cl)cnc4C3=O)ccc2F)(C(F)F)[C@H]2C[C@H]2O1 [Example 437, 6-(3-((1R,5S,6R)-3-amino-5-(difluoromethyl)-2-oxa-4-azabicyclo[4.1.0]hept-3-en-5-yl)-4-fluorophenyl)-3-chloro-5H-pyrrolo[3,4-b]pyridin-7(6H)-one] | 0.384 µM | 2.19 µM | 659 µM
19 | N#Cc1cnc2c(Nc3cc(F)c(F)c([C@]4(C(F)F)N=C(N)O[C@H]5C[C@H]54)c3)ncc(F)c2c1 [Example 366, 8-((3-((1S,5R,6S)-3-amino-5-(difluoromethyl)-2-oxa-4-azabicyclo[4.1.0]hept-3-en-5-yl)-4,5-difluorophenyl)amino)-5-fluoro-1,7-naphthyridine-3-carbonitrile] | > 16 µM | > 13.7 µM | 128 µM
20 | Cc1csc(C(=O)Nc2ccc(F)c([C@@]3(C(F)F)N=C(N)O[C@@H]4C[C@@H]43)c2)c1 [Example 176, N-(3-((1R,5S,6R)-3-amino-5-(difluoromethyl)-2-oxa-4-azabicyclo[4.1.0]hept-3-en-5-yl)-4-fluorophenyl)-4-methylthiophene-2-carboxamide] | 0.156 µM | 0.191 µM | 835 µM
21 | NC1=N[C@@](c2cc(NC(=O)c3cnc(OCc4cocn4)cn3)ccc2Cl)(C(F)F)[C@H]2C[C@H]2O1 [Example 102, N-(3-((1R,5S,6R)-3-amino-5-(difluoromethyl)-2-oxa-4-azabicyclo[4.1.0]hept-3-en-5-yl)-4-chlorophenyl)-5-(oxazol-4-ylmethoxy)pyrazine-2-carboxamide] | 0.013 µM | 0.0356 µM | 592 µM
22 | C#CCOc1cnc(C(=O)Nc2ccc(Cl)c([C@@]3(CF)N=C(N)O[C@@H]4C[C@@H]43)c2)cn1 [Example 279, N-(3-((1R,5S,6R)-3-amino-5-(fluoromethyl)-2-oxa-4-azabicyclo[4.1.0]hept-3-en-5-yl)-4-chlorophenyl)-5-(prop-2-yn-1-yloxy)pyrazine-2-carboxamide] | 0.0086 µM | 0.0056 µM | 124 µM
23 | CC#CCOc1cnc(C(=O)Nc2cc(F)c(F)c([C@@]3(CF)N=C(N)O[C@@H]4C[C@@H]43)c2)cn1 [Example 35, N-(3-((1R,5S,6R)-3-amino-5-(fluoromethyl)-2-oxa-4-azabicyclo[4.1.0]hept-3-en-5-yl)-4,5-difluorophenyl)-5-(but-2-yn-1-yloxy)pyrazine-2-carboxamide] | 0.0006 µM | 0.0016 µM | 256 µM
